Measurements as given in ChEMBL document CHEMBL1201862, “PubChem BioAssay data set” (2004).
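Test compounds were applied to cells in 96-well plates for 48 hours at 5 doses. Here, GI50 denotes the concentration required for 50% inhibition of growth.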 Calls of active or inactive are those of the source. No stated cut-off is given here; in the data, active = GI50 up to about 1.1 µM and inactive = higher.

Experiments:
Assay in all cases: NCI anticancer screen, dose series, 48 h
SNB-75 = tested on: SNB-75
DU-145 = tested on: DU-145
SN12C = tested on: SN12C
HOP-92 = tested on: HOP-92
NCI-H226 = tested on: NCI-H226
786-0 = tested on: 786-0
IGROV-1 = tested on: IGROV-1
COLO 205 = tested on: COLO 205
HOP-62 = tested on: HOP-62
RPMI-8226 = tested on: RPMI-8226
NCI-H460 = tested on: NCI-H460
KM12 = tested on: KM12
A498 = tested on: A498
SK-MEL-28 = tested on: SK-MEL-28
M14 = tested on: M14
PC-3 = tested on: PC-3
SR = tested on: SR
MDA-N = tested on: MDA-N
ACHN = tested on: ACHN
MCF7 = tested on: MCF7

Measured: GI50

CCCCN(CC)c1nc(C)nc2c1c(C)c(C)n2-c1c(C)cc(C)cc1C [ANTALARMIN]
inactive: SNB-75 14.3 µM | DU-145 16.6 µM | SN12C 22 µM | HOP-92 9.35 µM | NCI-H226 14.8 µM | 786-0 16.5 µM | IGROV-1 14.5 µM | COLO 205 15.6 µM | HOP-62 17.2 µM | RPMI-8226 7.87 µM | NCI-H460 13.2 µM | KM12 17.6 µM | A498 16.9 µM | SK-MEL-28 15.8 µM | M14 17.9 µM | PC-3 13.5 µM | SR 8.45 µM | MDA-N 20.1 µM | ACHN 14.9 µM

CC(C)OP(=O)(OC(C)C)c1ccc2c(c1)OCCOCCOCCOCCO2
inactive: SNB-75 > 100 µM | DU-145 > 100 µM | SN12C > 100 µM | NCI-H226 > 100 µM | 786-0 > 100 µM | IGROV-1 > 100 µM | COLO 205 > 100 µM | HOP-62 > 100 µM | RPMI-8226 > 100 µM | NCI-H460 > 100 µM | KM12 > 100 µM | A498 > 100 µM | SK-MEL-28 > 100 µM | M14 > 100 µM | MCF7 > 100 µM | PC-3 > 100 µM | SR > 100 µM | MDA-N > 100 µM | ACHN > 100 µM

COc1cccc(C2SC(=N)Nc3c2c(C)nn3C(=O)Cc2ccccc2)c1 (stereo unspecified)
inactive: SNB-75 51.5 µM | DU-145 > 100 µM | SN12C > 100 µM | NCI-H226 > 100 µM | 786-0 > 100 µM | IGROV-1 > 100 µM | COLO 205 > 100 µM | HOP-62 > 100 µM | RPMI-8226 > 100 µM | NCI-H460 > 100 µM | KM12 > 100 µM | A498 > 100 µM | SK-MEL-28 > 100 µM | M14 > 100 µM | MCF7 39.8 µM | PC-3 > 100 µM | SR > 100 µM | MDA-N > 100 µM | ACHN > 100 µM

OC1CSCCSCCCSCCSC1
inactive: SNB-75 > 100 µM | DU-145 > 100 µM | SN12C > 100 µM | HOP-92 > 100 µM | NCI-H226 > 100 µM | 786-0 > 100 µM | IGROV-1 > 100 µM | COLO 205 > 100 µM | HOP-62 > 100 µM | RPMI-8226 > 100 µM | NCI-H460 > 100 µM | A498 > 100 µM | SK-MEL-28 > 100 µM | M14 > 100 µM | MCF7 > 100 µM | PC-3 > 100 µM | MDA-N > 100 µM | ACHN > 100 µM

CC1(c2nc3ccccc3[nH]2)CCC(CO)C(C)(C)O1 (stereo unspecified)
inactive: SNB-75 > 100 µM | DU-145 > 100 µM | SN12C > 100 µM | HOP-92 > 100 µM | NCI-H226 > 100 µM | 786-0 > 100 µM | IGROV-1 > 100 µM | COLO 205 > 100 µM | HOP-62 > 100 µM | RPMI-8226 > 100 µM | KM12 > 100 µM | SK-MEL-28 > 100 µM | M14 > 100 µM | MCF7 > 100 µM | PC-3 > 100 µM | SR 16.1 µM | MDA-N > 100 µM | ACHN > 100 µM

O=Cc1cccc2ccc3ccccc3c12
inactive: SNB-75 7.35 µM | DU-145 22.4 µM | SN12C 20.5 µM | NCI-H226 24.7 µM | 786-0 17.5 µM | COLO 205 18.7 µM | HOP-62 15.9 µM | NCI-H460 21.4 µM | KM12 4.02 µM | A498 22.4 µM | M14 20 µM | MCF7 14.4 µM | PC-3 9.59 µM | MDA-N 21.6 µM | ACHN 13.5 µM

OC(c1ccoc1)c1cc2ccccc2s1 (stereo unspecified)
inactive: SNB-75 > 10 µM | DU-145 > 10 µM | SN12C > 10 µM | HOP-92 > 10 µM | NCI-H226 > 10 µM | 786-0 > 10 µM | IGROV-1 > 10 µM | COLO 205 > 10 µM | HOP-62 > 10 µM | RPMI-8226 > 10 µM | NCI-H460 > 10 µM | KM12 > 10 µM | SK-MEL-28 > 10 µM | M14 > 10 µM | MCF7 > 10 µM | PC-3 > 10 µM | SR > 10 µM | MDA-N > 10 µM | ACHN > 10 µM

COc1ccc2cc(/C=N\NC(=O)Nc3cccc4ccccc34)ccc2c1
inactive: SNB-75 11.1 µM | DU-145 58.2 µM | SN12C 36.6 µM | NCI-H226 28.2 µM | 786-0 12.9 µM | IGROV-1 66.1 µM | COLO 205 46.7 µM | HOP-62 15.3 µM | NCI-H460 17.9 µM | KM12 67 µM | A498 17.5 µM | SK-MEL-28 33 µM | M14 33.4 µM | MCF7 20.3 µM | PC-3 33.7 µM | SR 16.1 µM | MDA-N 42 µM | ACHN 23.9 µM

C=CCOCC1C2CCC3(OCCO3)C21 (stereo unspecified)
inactive: SNB-75 > 100 µM | DU-145 > 100 µM | SN12C > 100 µM | HOP-92 > 100 µM | NCI-H226 > 100 µM | 786-0 > 100 µM | IGROV-1 > 100 µM | COLO 205 > 100 µM | HOP-62 > 100 µM | RPMI-8226 > 100 µM | NCI-H460 > 100 µM | KM12 > 100 µM | SK-MEL-28 > 100 µM | M14 > 100 µM | MCF7 > 100 µM | PC-3 > 100 µM | SR > 100 µM | MDA-N > 100 µM | ACHN > 100 µM

CN1CCc2c(sc3nc(S)nc(S)c23)C1
inactive: SNB-75 > 100 µM | DU-145 > 100 µM | SN12C > 100 µM | HOP-92 > 100 µM | NCI-H226 > 100 µM | 786-0 > 100 µM | IGROV-1 > 100 µM | COLO 205 > 100 µM | HOP-62 > 100 µM | RPMI-8226 > 100 µM | NCI-H460 > 100 µM | KM12 > 100 µM | SK-MEL-28 > 100 µM | M14 > 100 µM | MCF7 > 100 µM | PC-3 > 100 µM | SR > 100 µM | MDA-N > 100 µM | ACHN > 100 µM

COc1ccc(N2C(=O)c3c4c(c5c([nH]c6ncccc65)c3C2=O)CCC(C(C)(C)C)C4)cc1 (stereo unspecified)
inactive: SNB-75 16.8 µM | DU-145 > 100 µM | SN12C > 100 µM | NCI-H226 > 100 µM | 786-0 35.6 µM | IGROV-1 > 100 µM | COLO 205 > 100 µM | HOP-62 38.6 µM | RPMI-8226 > 100 µM | NCI-H460 > 100 µM | KM12 > 100 µM | SK-MEL-28 > 100 µM | M14 > 100 µM | MCF7 > 100 µM | PC-3 > 100 µM | SR > 100 µM | MDA-N > 100 µM | ACHN 40.6 µM
